# Results reported in ChEMBL document CHEMBL5212743, “Selectivity Literature for EUbOPEN Chemogenomics Library wave 3” (2023).
# Tests used:
# [1] = system: Receptor-type tyrosine-protein kinase FLT3 (Homo sapiens), P36888 [K663Q]; experiment: Selectivity interaction (KinomeScan (DiscoverX)) EUB0000344a FLT3; conditions: at 1 µM
# [2] = target: Kappa-type opioid receptor (Homo sapiens, UniProt P41145); experiment: Selectivity interaction (GPCR panel (PDSP screen)) EUB0000344a OPRK1; conditions: at 10 µM
# Chain of Kappa-type opioid receptor (P41145 whole entry): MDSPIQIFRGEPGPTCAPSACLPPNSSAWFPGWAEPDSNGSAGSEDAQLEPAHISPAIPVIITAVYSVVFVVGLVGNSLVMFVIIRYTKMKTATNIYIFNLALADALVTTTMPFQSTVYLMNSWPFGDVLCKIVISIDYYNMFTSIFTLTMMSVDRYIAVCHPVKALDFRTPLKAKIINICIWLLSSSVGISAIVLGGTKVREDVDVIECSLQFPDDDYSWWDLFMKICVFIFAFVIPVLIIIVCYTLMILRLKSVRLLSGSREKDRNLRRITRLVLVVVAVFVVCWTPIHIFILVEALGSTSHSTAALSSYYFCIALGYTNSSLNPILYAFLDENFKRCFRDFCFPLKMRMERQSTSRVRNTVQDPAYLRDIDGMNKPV
# [3] = target: Ribosomal protein S6 kinase beta-1 (Homo sapiens) (UniProt P23443); experiment: Selectivity interaction (KinomeScan (DiscoverX)) EUB0000344a RPS6KB1; conditions: at 1 µM
# Chain of Ribosomal protein S6 kinase beta-1 (Homo sapiens) (P23443 whole entry, looked up): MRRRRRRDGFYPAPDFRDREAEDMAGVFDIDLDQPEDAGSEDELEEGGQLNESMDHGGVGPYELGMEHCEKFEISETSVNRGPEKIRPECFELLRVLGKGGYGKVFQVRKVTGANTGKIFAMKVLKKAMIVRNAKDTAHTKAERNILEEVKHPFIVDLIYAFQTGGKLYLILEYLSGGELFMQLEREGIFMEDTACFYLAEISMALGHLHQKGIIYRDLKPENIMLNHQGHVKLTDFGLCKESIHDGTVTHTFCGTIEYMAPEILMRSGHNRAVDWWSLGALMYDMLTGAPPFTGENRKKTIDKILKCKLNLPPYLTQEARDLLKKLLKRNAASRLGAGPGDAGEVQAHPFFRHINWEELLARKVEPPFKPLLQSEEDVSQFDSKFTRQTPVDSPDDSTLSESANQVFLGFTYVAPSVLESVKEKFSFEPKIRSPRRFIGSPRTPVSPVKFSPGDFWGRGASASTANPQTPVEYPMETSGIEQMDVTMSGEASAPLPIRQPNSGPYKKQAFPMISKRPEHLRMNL
# [4] = target: Sigma intracellular receptor 2 (Homo sapiens, UniProt Q5BJF2); experiment: Selectivity interaction (GPCR panel (PDSP screen)) EUB0000239b TMEM97; conditions: at 10 µM
# Chain of Sigma intracellular receptor 2 (Q5BJF2 whole entry): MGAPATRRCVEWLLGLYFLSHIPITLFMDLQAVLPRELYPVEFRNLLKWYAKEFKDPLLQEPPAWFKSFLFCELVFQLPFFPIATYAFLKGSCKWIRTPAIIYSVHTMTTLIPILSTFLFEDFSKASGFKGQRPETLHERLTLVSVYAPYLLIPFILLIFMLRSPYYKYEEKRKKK
# [5] = target: Cathepsin G (Homo sapiens) (UniProt P08311); experiment: Selectivity interaction (Protease panel (enzymatic assay)) EUB0000239b CTSG; conditions: at 10 µM
# [6] = target: Sodium/nucleoside cotransporter 2 (Homo sapiens) (UniProt O43868); experiment: Selectivity interaction (Enzyme panel (receptors, ion channels, enzymes, and transporters)) EUB0000239b SLC28A2; conditions: at 10 µM
# [7] = target: Serine/threonine-protein kinase Nek3 (Homo sapiens) (UniProt P51956); experiment: Selectivity interaction (KinomeScan (DiscoverX)) EUB0000239b NEK3; conditions: at 1 µM
# Chain of Serine/threonine-protein kinase Nek3 (Homo sapiens) (P51956 whole entry): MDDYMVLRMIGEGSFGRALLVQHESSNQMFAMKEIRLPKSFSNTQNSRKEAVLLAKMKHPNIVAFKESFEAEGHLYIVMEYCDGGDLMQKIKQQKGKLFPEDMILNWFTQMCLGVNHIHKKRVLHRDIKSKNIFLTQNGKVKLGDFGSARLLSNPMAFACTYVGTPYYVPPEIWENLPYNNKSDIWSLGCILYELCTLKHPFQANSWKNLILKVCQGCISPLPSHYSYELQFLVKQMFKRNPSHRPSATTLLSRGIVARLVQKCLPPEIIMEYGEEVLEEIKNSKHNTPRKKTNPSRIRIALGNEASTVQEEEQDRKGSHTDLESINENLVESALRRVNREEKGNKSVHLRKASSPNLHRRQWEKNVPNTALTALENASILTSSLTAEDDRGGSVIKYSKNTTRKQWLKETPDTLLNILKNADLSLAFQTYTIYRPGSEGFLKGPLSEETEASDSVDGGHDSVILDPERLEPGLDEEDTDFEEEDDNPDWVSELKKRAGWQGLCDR
# [8] = target: Homeodomain-interacting protein kinase 1 (Homo sapiens, UniProt Q86Z02); experiment: Selectivity interaction (KinomeScan (DiscoverX)) EUB0000239b HIPK1; conditions: at 1 µM
# Chain of Homeodomain-interacting protein kinase 1 (Q86Z02 whole entry, looked up, canonical isoform): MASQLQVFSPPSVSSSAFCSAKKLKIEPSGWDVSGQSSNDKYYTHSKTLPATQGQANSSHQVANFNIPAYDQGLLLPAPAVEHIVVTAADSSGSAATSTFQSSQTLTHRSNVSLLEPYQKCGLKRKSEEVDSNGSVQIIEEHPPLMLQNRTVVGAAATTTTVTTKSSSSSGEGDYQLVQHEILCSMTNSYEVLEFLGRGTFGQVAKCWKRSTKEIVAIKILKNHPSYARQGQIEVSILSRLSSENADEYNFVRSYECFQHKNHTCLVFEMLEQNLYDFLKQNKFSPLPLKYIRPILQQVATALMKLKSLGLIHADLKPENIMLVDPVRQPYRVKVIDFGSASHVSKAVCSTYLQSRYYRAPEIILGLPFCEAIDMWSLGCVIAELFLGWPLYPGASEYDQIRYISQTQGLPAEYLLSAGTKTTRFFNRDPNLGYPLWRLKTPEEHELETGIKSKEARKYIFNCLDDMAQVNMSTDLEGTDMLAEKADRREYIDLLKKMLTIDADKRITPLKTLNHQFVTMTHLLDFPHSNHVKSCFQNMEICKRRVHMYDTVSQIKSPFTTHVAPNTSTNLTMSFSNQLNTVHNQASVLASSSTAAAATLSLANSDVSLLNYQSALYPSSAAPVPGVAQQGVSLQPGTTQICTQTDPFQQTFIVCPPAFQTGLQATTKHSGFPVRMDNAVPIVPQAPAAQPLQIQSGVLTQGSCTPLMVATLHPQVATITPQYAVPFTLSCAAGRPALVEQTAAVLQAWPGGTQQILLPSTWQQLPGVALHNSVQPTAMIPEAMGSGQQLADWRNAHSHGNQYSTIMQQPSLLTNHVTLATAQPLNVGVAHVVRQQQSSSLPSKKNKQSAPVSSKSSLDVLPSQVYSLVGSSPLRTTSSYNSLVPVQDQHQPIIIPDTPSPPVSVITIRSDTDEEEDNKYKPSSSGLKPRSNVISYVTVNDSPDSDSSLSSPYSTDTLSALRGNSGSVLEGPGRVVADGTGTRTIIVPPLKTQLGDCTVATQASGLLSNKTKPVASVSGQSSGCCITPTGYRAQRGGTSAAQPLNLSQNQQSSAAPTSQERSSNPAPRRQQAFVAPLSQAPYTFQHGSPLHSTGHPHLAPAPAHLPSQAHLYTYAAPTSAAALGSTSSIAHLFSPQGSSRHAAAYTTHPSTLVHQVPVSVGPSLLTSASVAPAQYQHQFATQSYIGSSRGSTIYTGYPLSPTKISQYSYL
# [9] = system: Phosphatidylinositol 4,5-bisphosphate 3-kinase catalytic subunit alpha isoform (Homo sapiens), P42336 [E545K]; experiment: Selectivity interaction (KinomeScan (DiscoverX)) EUB0000239b PIK3CA; conditions: at 1 µM
# Chain of Phosphatidylinositol 4,5-bisphosphate 3-kinase catalytic subunit alpha isoform (Homo sapiens), P42336 [E545K] (P42336 whole entry E545K, canonical isoform): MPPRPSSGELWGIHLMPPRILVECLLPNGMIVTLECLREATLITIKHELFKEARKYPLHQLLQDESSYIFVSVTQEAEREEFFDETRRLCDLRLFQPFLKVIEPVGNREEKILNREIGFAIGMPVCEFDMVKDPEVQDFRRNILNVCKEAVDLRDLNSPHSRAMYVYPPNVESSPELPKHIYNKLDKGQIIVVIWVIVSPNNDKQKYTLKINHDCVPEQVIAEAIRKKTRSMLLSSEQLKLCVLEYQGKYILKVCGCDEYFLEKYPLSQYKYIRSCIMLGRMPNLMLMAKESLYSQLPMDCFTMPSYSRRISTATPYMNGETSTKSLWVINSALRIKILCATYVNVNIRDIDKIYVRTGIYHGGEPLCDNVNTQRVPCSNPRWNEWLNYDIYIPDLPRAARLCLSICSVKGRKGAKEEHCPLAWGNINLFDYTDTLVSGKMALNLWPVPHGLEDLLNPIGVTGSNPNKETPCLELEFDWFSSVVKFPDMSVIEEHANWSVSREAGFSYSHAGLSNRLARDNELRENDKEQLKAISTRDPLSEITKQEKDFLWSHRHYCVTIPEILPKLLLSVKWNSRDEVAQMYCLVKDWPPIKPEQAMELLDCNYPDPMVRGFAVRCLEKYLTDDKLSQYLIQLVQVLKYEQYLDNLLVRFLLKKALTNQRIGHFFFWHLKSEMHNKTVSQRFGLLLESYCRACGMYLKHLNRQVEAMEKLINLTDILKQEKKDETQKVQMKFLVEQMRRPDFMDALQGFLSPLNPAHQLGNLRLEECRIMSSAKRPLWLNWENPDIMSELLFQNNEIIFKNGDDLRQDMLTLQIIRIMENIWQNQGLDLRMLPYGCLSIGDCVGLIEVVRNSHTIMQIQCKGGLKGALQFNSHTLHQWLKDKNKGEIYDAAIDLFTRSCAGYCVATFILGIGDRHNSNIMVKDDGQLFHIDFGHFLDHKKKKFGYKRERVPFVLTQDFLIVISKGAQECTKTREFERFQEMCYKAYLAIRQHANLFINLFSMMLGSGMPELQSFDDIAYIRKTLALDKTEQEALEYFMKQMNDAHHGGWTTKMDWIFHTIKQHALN
# [10] = target: Cyclin-dependent kinase 8 (Homo sapiens) (UniProt P49336); experiment: Selectivity interaction (KinomeScan (DiscoverX)) EUB0000239b CDK8; conditions: at 1 µM
# Chain of Cyclin-dependent kinase 8 (Homo sapiens) (P49336 whole entry): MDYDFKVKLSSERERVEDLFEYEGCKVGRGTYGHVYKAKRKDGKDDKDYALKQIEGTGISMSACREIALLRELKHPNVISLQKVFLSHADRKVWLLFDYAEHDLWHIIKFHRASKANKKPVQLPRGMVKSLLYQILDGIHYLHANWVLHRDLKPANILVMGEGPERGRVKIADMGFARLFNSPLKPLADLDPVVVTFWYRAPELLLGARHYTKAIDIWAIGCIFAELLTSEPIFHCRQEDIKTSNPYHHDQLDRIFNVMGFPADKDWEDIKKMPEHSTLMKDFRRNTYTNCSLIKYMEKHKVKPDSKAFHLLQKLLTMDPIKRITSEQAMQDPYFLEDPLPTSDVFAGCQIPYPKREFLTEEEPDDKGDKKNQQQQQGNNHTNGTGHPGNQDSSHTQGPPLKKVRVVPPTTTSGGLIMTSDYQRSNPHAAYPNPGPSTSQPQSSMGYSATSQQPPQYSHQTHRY
# [11] = system: T1, Receptor-type tyrosine-protein kinase FLT3 (Homo sapiens), P36888 [N841I]; experiment: Selectivity interaction (KinomeScan (DiscoverX)) EUB0000239b FLT3; conditions: at 1 µM
# T1 sequence (whole entry): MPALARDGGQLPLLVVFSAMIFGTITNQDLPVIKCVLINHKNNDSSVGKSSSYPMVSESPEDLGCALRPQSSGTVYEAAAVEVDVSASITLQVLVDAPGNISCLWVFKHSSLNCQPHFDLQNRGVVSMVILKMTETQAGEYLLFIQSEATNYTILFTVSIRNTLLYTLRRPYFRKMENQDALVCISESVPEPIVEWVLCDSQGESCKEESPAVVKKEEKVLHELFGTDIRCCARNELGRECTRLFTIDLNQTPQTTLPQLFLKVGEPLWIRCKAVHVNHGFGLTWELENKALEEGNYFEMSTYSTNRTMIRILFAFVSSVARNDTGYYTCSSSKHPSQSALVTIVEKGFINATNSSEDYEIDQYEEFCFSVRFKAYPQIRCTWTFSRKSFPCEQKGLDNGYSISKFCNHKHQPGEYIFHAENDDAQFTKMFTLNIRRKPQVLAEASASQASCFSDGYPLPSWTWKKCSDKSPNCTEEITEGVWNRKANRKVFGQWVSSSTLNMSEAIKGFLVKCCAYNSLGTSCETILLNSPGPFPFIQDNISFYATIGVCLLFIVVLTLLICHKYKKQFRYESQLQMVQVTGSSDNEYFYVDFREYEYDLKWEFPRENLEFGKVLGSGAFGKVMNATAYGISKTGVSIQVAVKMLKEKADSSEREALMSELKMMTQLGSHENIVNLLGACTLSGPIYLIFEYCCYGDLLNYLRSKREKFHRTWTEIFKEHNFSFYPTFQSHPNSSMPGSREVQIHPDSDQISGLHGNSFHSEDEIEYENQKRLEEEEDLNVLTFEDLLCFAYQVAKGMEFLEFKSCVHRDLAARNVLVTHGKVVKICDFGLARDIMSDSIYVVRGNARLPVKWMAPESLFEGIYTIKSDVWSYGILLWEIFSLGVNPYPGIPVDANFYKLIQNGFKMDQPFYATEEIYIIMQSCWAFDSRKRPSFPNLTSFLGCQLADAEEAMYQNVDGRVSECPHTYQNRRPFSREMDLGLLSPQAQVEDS
# [12] = target: Microtubule-associated serine/threonine-protein kinase 1 (Homo sapiens) (UniProt Q9Y2H9); experiment: Selectivity interaction (KinomeScan (DiscoverX)) EUB0000239b MAST1; conditions: at 1 µM
# [13] = target: T2, Serine/threonine-protein kinase TAO3 (Homo sapiens) (UniProt Q9H2K8); experiment: Selectivity interaction (KinomeScan (DiscoverX)) EUB0000706a TAOK3; conditions: at 1 µM
# T2 sequence (whole entry): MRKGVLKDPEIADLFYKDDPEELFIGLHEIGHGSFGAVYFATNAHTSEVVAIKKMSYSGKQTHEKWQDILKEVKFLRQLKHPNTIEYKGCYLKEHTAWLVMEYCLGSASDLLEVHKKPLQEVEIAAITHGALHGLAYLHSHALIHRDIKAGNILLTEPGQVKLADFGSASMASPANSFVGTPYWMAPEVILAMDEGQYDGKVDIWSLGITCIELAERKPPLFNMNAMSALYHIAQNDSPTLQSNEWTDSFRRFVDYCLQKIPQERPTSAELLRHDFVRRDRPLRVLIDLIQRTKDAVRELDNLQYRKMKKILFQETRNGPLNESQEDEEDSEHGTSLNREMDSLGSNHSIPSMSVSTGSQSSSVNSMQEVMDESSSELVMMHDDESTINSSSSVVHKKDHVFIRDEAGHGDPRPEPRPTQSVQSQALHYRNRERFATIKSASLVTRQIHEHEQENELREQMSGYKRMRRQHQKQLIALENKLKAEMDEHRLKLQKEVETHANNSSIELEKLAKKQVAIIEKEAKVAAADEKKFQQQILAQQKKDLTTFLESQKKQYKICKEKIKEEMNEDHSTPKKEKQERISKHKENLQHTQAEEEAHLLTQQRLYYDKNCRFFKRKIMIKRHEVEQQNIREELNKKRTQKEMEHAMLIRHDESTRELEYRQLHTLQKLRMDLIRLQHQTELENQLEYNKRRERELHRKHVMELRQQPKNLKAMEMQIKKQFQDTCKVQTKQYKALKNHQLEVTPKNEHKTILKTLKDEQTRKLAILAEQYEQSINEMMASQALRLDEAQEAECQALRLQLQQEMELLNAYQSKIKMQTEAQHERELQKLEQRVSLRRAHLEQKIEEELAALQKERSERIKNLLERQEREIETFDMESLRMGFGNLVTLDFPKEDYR
# [14] = target: T3, Tyrosine-protein kinase JAK3 (Homo sapiens) (UniProt P52333); experiment: Selectivity interaction (KinomeScan (DiscoverX)) EUB0000706a JAK3; conditions: at 1 µM
# T3 sequence (whole entry): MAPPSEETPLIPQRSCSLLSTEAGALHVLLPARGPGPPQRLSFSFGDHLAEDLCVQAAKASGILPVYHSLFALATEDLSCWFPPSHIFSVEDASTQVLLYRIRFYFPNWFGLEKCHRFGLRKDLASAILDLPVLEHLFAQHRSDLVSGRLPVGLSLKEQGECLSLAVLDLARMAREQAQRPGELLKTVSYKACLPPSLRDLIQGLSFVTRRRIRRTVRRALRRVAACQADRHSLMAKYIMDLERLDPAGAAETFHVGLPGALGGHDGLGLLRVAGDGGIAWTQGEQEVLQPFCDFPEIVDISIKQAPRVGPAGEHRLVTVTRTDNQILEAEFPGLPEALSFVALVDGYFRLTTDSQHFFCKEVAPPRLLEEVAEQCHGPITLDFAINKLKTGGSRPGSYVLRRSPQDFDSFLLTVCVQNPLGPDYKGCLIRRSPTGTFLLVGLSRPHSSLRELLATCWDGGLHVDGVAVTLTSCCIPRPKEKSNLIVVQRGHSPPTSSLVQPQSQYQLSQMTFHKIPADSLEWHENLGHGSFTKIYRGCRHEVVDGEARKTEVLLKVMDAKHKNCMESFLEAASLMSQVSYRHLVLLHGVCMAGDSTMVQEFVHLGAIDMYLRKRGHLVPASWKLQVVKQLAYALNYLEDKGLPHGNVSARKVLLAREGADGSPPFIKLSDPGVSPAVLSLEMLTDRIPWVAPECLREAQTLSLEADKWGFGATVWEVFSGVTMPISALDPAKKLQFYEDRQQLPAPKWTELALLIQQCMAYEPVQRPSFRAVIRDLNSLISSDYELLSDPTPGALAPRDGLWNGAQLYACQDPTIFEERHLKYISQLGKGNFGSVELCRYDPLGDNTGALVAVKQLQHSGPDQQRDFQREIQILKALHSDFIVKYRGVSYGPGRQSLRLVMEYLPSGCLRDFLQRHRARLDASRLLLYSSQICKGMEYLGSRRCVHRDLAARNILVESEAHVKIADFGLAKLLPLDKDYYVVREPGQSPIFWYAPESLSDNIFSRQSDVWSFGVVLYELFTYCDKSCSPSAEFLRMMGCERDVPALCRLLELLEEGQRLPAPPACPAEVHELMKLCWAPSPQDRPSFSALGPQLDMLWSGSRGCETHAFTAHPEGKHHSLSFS
# [15] = target: Phosphatidylinositol 4,5-bisphosphate 3-kinase catalytic subunit alpha isoform (Homo sapiens, UniProt P42336); experiment: Selectivity interaction (KinomeScan (DiscoverX)) EUB0000706a PIK3CA; conditions: at 1 µM
# Chain of Phosphatidylinositol 4,5-bisphosphate 3-kinase catalytic subunit alpha isoform (P42336 whole entry, canonical isoform): as the sequence (P42336 whole entry E545K, canonical isoform) above, with K545E counted along it
# [16] = target: Calcium/calmodulin-dependent protein kinase kinase 1 (Homo sapiens) (UniProt Q8N5S9); experiment: Selectivity interaction (KinomeScan (DiscoverX)) EUB0000167b CAMKK1; conditions: at 1 µM
# Chain of Calcium/calmodulin-dependent protein kinase kinase 1 (Homo sapiens) (Q8N5S9 whole entry, looked up): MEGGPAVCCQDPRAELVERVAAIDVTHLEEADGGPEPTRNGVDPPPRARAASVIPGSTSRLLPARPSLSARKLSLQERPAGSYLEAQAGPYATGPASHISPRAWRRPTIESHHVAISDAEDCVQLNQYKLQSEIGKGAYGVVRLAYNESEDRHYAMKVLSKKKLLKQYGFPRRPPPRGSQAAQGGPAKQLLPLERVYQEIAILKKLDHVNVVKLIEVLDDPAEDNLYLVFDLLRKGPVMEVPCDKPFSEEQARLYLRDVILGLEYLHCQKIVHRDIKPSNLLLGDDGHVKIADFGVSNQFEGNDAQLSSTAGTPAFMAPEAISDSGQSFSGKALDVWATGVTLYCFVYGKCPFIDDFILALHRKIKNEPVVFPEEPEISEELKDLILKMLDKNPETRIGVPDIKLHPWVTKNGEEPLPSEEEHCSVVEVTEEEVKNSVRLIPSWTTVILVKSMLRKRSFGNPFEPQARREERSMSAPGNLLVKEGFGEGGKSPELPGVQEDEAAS
# [17] = system: Receptor-type tyrosine-protein kinase FLT3 (Homo sapiens), P36888 [K663Q]; experiment: Selectivity interaction (KinomeScan (DiscoverX)) EUB0000274bCl FLT3; conditions: at 1 µM
# [18] = target: Ribosomal protein S6 kinase beta-1 (Homo sapiens) (UniProt P23443); experiment: Selectivity interaction (KinomeScan (DiscoverX)) EUB0000274bCl RPS6KB1; conditions: at 1 µM
smiles,measurement,setting,value
N#CC1(c2ccccn2)CCN(Cc2cc(C(=O)N3CCCC3)c(=O)n3ccccc23)CC1,% of control,[1],30%
same,% of inhibition,[2],46.8%
same,% of control,[3],34%
CO[C@@H](C)c1c(Nc2ccc([C@H](N(C)C(=O)C3CCS(=O)(=O)CC3)C(F)(F)F)cc2)cnc2cc(Cl)nn12,% of inhibition,[4],49.9%
same,% of inhibition,[5],7%
same,% of inhibition,[6],52%
same,% of control,[7],40%
same,% of control,[8],40%
same,% of control,[9],48%
same,% of control,[10],39%
same,% of control,[11],23%
same,% of control,[12],43%
C[C@@H]1CN(c2cc(-c3nn(C)c4ccc(OC5(C)CC5)cc34)ncn2)C[C@H](C)O1,% of control,[13],35%
same,% of control,[14],12%
same,% of control,[15],32%
Cc1cccc(-c2cnc3occ(-c4ccc(C(=O)O)c(C5CCCC5)c4)c3c2)c1,% of control,[16],12%
O=C(O)c1cc(-c2ccc(C3CCNCC3)cc2)c2ccc(-c3ccc(C(F)(F)F)cc3)cc2c1,% of control,[17],30%
same,% of control,[18],34%
